Where a name gives a salt, the structure may show the parent alone.

The target in the first test is T1, human hNET (Homo sapiens, UniProt P23975).
T1 construct: expressed in transfected cells; host or cells: MDCK (MDCK-Net6)
T1 sequence (P23975 whole entry): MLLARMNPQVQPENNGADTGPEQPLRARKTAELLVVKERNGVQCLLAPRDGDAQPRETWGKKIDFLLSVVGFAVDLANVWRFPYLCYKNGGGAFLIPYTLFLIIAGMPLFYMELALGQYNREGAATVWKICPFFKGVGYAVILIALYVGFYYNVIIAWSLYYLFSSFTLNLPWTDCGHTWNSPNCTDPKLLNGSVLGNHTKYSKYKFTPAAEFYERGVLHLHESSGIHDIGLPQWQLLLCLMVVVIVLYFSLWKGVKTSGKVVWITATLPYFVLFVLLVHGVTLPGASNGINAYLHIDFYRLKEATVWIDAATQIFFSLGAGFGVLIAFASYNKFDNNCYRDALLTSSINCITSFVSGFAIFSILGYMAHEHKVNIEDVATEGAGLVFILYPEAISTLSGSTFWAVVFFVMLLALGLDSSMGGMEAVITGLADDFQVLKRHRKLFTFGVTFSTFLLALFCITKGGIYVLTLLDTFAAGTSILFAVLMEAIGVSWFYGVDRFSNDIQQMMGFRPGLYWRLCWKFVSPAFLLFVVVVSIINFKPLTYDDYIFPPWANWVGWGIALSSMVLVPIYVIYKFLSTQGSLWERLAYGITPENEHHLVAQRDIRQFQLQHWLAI
As to the kind of experiment: Norepinephrine (NE) uptake assay in MDCK-Net6 cells. Type of test: cell-based. Conditions: [3H]NE uptake, MDCK-Net6 cells stably transfected with hNET. As to the method:
Cells were plated at 300,000/T75 flask and cells were split twice weekly. […] Cells were plated at 250,000 cells/T75 flask and split twice weekly.
Norepinephrine (NE) Uptake Assay
On day 1, cells were plated at 3,000 cells/well in growth medium and maintained in a cell incubator (37° C., 5% CO2). On day 2, growth medium was replaced with 200 μl of assay buffer (25 mM HEPES; 120 mM NaCl; 5 mM KCl; 2.5 mM CaCl2; 1.2 mM MgSO4; 2 mg/ml glucose (pH 7.4, 37° C.)) containing 0.2 mg/ml ascorbic acid and 10 μM pargyline. Plates containing cells with 200 μl of assay buffer were equilibrated for 10 minutes at 37° C. prior to addition of compounds. A stock solution of desipramine was prepared in DMSO (10 mM) and delivered to triplicate wells containing cells for a final test concentration of 1 μM. Data from these wells were used to define non-specific NE uptake (minimum NE uptake). Test compounds were prepared in DMSO (10 mM) and diluted in assay buffer according to test range (1 to 10,000 nM). Twenty-five microliters of assay buffer (maximum NE uptake) or test compound were added directly to triplicate wells containing cells in 200 μl of assay buffer. The cells in assay buffer with test compounds were incubated for 20 minutes at 37° C. […] The reaction was terminated by decanting the supernatant from the plate. The plates containing cells were washed twice with 200 μl assay buffer (37° C.) to remove free radioligand. The plates were then inverted, left to dry for 2 minutes, then reinverted and air-dried for an additional 10 minutes. […] After cell lysis, 75 μl of scintillation cocktail was added to each well and the plates were sealed with film tape. The plates were returned to the shake table and vigorously shaken for a minimum of 10 minutes to ensure adequate partitioning of organic and aqueous solutions. The plates were counted in a Wallac Microbeta counter (PerkinElmer) to collect the raw cpm data.
For each experiment, a data stream of cpm values collected from the Wallac Microbeta counter was downloaded to a Microsoft Excel statistical application program. Calculations of EC50 values were made using the transformed-both-sides logistic dose response program written by Wyeth Biometrics Department.
Regarding `CNC[C@@H](O)[C@H](c1cccc(F)c1)n1cc(-c2ccccc2OC(F)(F)F)c2ccccc21` [Example 34, (1S,2R)-1-(3-fluorophenyl)-3-(methylamino)-1-{3-[2-(trifluoromethoxy)phenyl]-1H-indol-1-yl}propan-2-ol hydrochloride], the midpoint of the response, the EC50, lay at 327 nM. The same measure, in the same setting: the same measure for `CNC[C@@H](O)[C@H](c1cccc(F)c1)n1cc(-c2ccc(Cl)cc2Cl)c2ccccc21` [Example 41, (1S,2R)-1-[3-(2,4-dichlorophenyl)-1H-indol-1-yl]-1-(3-fluorophenyl)-3-(methylamino)propan-2-ol hydrochloride]: 193 nM; for `CNC[C@@H](O)[C@H](c1cccc(F)c1)N1C(=O)C(C)(C)c2cc(F)cc(F)c21` [Example 63, 5,7-difluoro-1-[(1S,2R)-1-(3-fluorophenyl)-2-hydroxy-3-(methylamino)propyl]-3,3-dimethyl-1,3-dihydro-2H-indol-2-one hydrochloride]: 51 nM; for `CC1(C)CN([C@@H](c2cc(F)cc(F)c2)[C@H](O)CN)c2ccccc21` [Example 61, (1S,2R)-3-amino-1-(3,5-difluorophenyl)-1-(3,3-dimethyl-2,3-dihydro-1H-indol-1-yl)propan-2-ol hydrochloride]: 216 nM.

`CNC[C@@H](O)[C@H](c1cccc(F)c1)n1cc(-c2ccc(F)cc2)c2ccccc21` [Example 36, (1S,2R)-1-(3-fluorophenyl)-1-[3-(4-fluorophenyl)-1H-indol-1-yl]-3-(methylamino)propan-2-ol hydrochloride] displayed a concentration for a half-maximal effect (EC50) of 711 nM.

For the compound `CNC[C@@H](O)[C@H](c1cc(F)cc(Cl)c1)N1CC(C)(C)c2cccc(F)c21` [Example 114, (1S,2R)-1-(3-chloro-5-fluorophenyl)-1-(7-fluoro-3,3-dimethyl-2,3-dihydro-1H-indol-1-yl)-3-(methylamino)propan-2-ol hydrochloride], the EC50 turned out to be 166 nM.

`CNC[C@@H](O)[C@H](c1ccccc1)n1ccc2cc(OCc3ccccn3)ccc21` [Example 92, (1S,2R)-3-(methylamino)-1-phenyl-1-[5-(pyridin-2-ylmethoxy)-1H-indol-1-yl]propan-2-ol hydrochloride] displayed an EC50 of 9 nM. On to `CNC[C@@H](O)[C@H](c1cccc(Cl)c1)N1C(=O)C(C)(C)c2cccc(F)c21` [Example 69, 1-[(1S,2R)-1-(3-chlorophenyl)-2-hydroxy-3-(methylamino)propyl]-7-fluoro-3,3-dimethyl-1,3-dihydro-2H-indol-2-one hydrochloride], for which the midpoint of the response, the EC50, lay at 92 nM. As to `CNC[C@@H](O)[C@H](c1cccc(F)c1)N1C(=O)C2(CCC2)c2cccc(F)c21` [Example 116, 7′-fluoro-1′-[(1S,2R)-1-(3-fluorophenyl)-2-hydroxy-3-(methylamino)propyl]spiro[cyclobutane-1,3′-indol]-2′(1′H)-one hydrochloride], the EC50 is 10 nM. With `CCOc1ccccc1-c1cn([C@@H](c2cccc(F)c2)[C@H](O)CNC)c2ccccc12` [Example 42, (1S,2R)-1-[3-(2-ethoxyphenyl)-1H-indol-1-yl]-1-(3-fluorophenyl)-3-(methylamino)propan-2-ol hydrochloride], the concentration for a half-maximal effect (EC50) was 71 nM. Still for that read-out and setting: the same measure for `CNC[C@@H](O)[C@H](c1ccccc1)N1C(=O)C2(CCCCC2)c2cc(OCc3ccccc3)ccc21` [Example 67, 5′-(benzyloxy)-1′-[(1S,2R)-2-hydroxy-3-(methylamino)-1-phenylpropyl]spiro[cyclohexane-1,3′-indol]-2′(1′H)-one hydrochloride]: 839 nM; for `CNC[C@@H](O)[C@H](c1cccc(F)c1)N1C(=O)C2(CCCCC2)c2cccc(F)c21` [Example 110, 7′-fluoro-1′-[(1S,2R)-1-(3-fluorophenyl)-2-hydroxy-3-(methylamino)propyl]spiro[cyclohexane-1,3′-indol]-2′(1′H)-one hydrochloride]: 6 nM.

Regarding `CNC[C@@H](O)[C@H](c1cccc(F)c1)N1C(=O)C2(CCCC2)c2cccc(F)c21` [Example 117, 7′-fluoro-1′-[(1S,2R)-1-(3-fluorophenyl)-2-hydroxy-3-(methylamino)propyl]spiro[cyclopentane-1,3′-indol]-2′(1′H)-one hydrochloride], a half-maximal effect (EC50) was put at 2 nM.

The compound `CNC[C@@H](O)[C@H](c1cccc(F)c1)n1ccc2cc(OC)nc(Cl)c21` [Example 43, (1S,2R)-1-(7-chloro-5-methoxy-1H-pyrrolo[2,3-c]pyridin-1-yl)-1-(3-fluorophenyl)-3-(methylamino)propan-2-ol hydrochloride] yielded an EC50 of 299 nM.

Consider `CNC[C@@H](O)[C@H](c1ccccc1)N1CCc2cccc(F)c21` [Example 119, (1S,2R)-1-(7-Fluoro-2,3-dihydro-1H-indol-1-yl)-3-(methylamino)-1-phenylpropan-2-ol hydrochloride], for which the EC50 was found to be 39 nM. On to `CNC[C@@H](O)[C@H](c1cccc(Cl)c1)N1C(=O)C2(CCCCC2)c2ccc(F)cc21` [Example 111, 1′-[(1S,2R)-1-(3-chlorophenyl)-2-hydroxy-3-(methylamino)propyl]-6′-fluorospiro[cyclohexane-1,3′-indol]-2′(1′H)-one hydrochloride], for which the half-maximal effective concentration (EC50) is 186 nM. `CCC1CN([C@@H](c2ccccc2)[C@H](O)CNC)c2ccccc21` (stereo partly drawn) [Example 59, (1S,2R)-1-(3-ethyl-2,3-dihydro-1H-indol-1-yl)-3-(methylamino)-1-phenylpropan-2-ol hydrochloride] gave a 50% effective concentration (EC50) of 16 nM. In turn, `CNC[C@@H](O)[C@H](c1cccc(F)c1)n1c(=O)n(-c2cccc(F)c2)c2cccc(F)c21` [Example 121, 4-fluoro-1-(3-fluorophenyl)-3-[(1S,2R)-1-(3-fluorophenyl)-2-hydroxy-3-(methylamino)propyl]-1,3-dihydro-2H-benzimidazol-2-one hydrochloride] yielded an EC50 of 189 nM.

Still in this test, the particulars now being: at 1 μM; [3H]NE uptake, MDCK-Net6 cells; read-out: hNET Percentage inhibition at 1 μM.
For the compound `CNC[C@@H](O)[C@H](c1cccc(F)c1)n1cc(-c2ccccc2Oc2ccccc2)c2ccccc21` [Example 37, (1S,2R)-1-(3-fluorophenyl)-3-(methylamino)-1-[3-(2-phenoxyphenyl)-1H-indol-1-yl]propan-2-ol hydrochloride], the inhibition at 1 µM was found to be 26%.

With `CNC[C@@H](O)[C@H](c1cccc(F)c1)n1ccc2cc(OC)ncc21` [Example 46, (1S,2R)-1-(3-fluorophenyl)-1-(5-methoxy-1H-pyrrolo[2,3-c]pyridin-1-yl)-3-(methylamino)propan-2-ol hydrochloride], the inhibition at 1 µM turned out to be 46%. `CNC[C@@H](O)[C@H](c1cccc(F)c1)n1ccc2cc(C)ncc21` [Example 48, (1S,2R)-1-(3-fluorophenyl)-3-(methylamino)-1-(5-methyl-1H-pyrrolo[2,3-c]pyridin-1-yl)propan-2-ol hydrochloride]: the inhibition at 1 µM worked out at 51%. Same read-out and setting: the same measure for `CNC[C@@H](O)[C@H](c1ccccc1)n1ccc2cc(C)ncc21` [Example 47, (1S,2R)-3-(methylamino)-1-(5-methyl-1H-pyrrolo[2.3-c]pyridin-1-yl)-1-phenylpropan-2-ol hydrochloride]: 35%; for `CNC[C@@H](O)[C@H](c1ccccc1)n1ccc2ccnc(C)c21` [Example 49, (1S,2R)-3-(methylamino)-1-(7-methyl-1H-pyrrolo[2,3-c]pyridin-1-yl)-1-phenylpropan-2-ol hydrochloride]: 51%.

The record behind these values is patent US20070072897A1, “Phenylaminopropanol derivatives and methods of their use” (Wyeth, priority 2005, published 2007).
